Square brackets hold non-standard residues; d marks the D form. Peptide text beside a SMILES is read from it. Ala(1H-tetrazol-5-yl) = N[C@@H](Cc1nnn[nH]1)C(=O)O
Legend:
PAC1R = molecular target: T1, PAC1R (Homo sapiens, UniProt P41586); assay: cAMP assay in PAC1R high-expressing CHO-K1 cell line; assay type: cell-based; conditions: Table 12; cAMP inducing effect, CHO-K1 PAC1R high-expressing cells
T1 construct: host or cells: CHO-K1
T1 sequence (P41586 21-468): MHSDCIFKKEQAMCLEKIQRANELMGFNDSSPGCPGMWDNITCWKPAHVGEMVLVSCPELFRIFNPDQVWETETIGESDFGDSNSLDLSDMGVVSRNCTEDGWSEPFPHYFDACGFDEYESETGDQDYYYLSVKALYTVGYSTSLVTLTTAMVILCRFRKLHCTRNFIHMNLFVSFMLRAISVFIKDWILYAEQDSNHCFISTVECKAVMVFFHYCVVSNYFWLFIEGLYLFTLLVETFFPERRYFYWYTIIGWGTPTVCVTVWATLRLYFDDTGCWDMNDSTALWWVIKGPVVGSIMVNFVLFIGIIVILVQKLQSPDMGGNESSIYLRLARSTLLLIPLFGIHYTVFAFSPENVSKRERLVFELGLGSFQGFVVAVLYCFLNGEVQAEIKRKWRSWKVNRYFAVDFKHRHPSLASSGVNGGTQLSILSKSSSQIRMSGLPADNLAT
Method: (§1) The cells were cultured for 18 to 24 hours at 37° C. in a 5% C02 incubator, adhering the cells to the plate. […] A 5-fold dilution series was then prepared with the same Cell assay buffer and used in an assay. The cAMP assay was carried out using a Hit Hunter cAMP Assay for Biologics kit (product of DiscoveRx, Cat. No. 90-0075LM25), according to the included kit instructions. […] Next, the culture medium was removed from the CHO-K1 cell culture plate, washing was performed with PBS, and the peptide-cAMP antibody liquid mixtures were added to the cells and incubated for 30 minutes under a 5% CO2 atmosphere at 37° C. A working detection solution was then added and the culture plate was shielded from light with aluminum foil and incubated at 25° C. for 1 hour. After incubation, Solution A was added and the culture plate was shielded from light with aluminum foil and then incubated at 25° C. for 3 hours. […] The obtained value for the Relative Luminescence Unit (RLU) was analyzed with GraphPad Prism Ver 6.05 (product of Graph Pad) and the EC50 value was calculated for each peptide. […] FIG. 2 and Table 11. […] A 5-fold dilution series was then prepared with the same Cell assay buffer and used in an assay. […] A 5-fold dilution series was then prepared with the same Cell assay buffer and used in an assay.

VPAC1R = molecular target: T2, VPAC1R (Homo sapiens, UniProt P32241); assay: cAMP assay in VPAC1R high-expressing CHO-K1 cell line; assay type: cell-based; conditions: Table 12; cAMP inducing effect, CHO-K1 VPAC1R high-expressing cells
T2 construct: host or cells: CHO-K1
T2 sequence (P32241 31-457): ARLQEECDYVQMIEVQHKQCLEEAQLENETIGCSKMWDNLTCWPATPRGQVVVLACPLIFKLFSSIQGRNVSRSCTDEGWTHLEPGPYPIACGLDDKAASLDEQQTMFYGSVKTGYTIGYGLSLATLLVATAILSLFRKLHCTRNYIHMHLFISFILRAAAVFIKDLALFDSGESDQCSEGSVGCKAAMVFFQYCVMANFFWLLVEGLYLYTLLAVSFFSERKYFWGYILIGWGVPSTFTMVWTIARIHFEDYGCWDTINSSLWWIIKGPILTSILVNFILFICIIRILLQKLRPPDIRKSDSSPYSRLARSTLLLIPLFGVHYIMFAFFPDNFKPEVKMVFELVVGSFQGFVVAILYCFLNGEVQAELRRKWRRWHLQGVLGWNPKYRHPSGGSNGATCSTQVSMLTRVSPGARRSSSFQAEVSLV
Method: as §1

[1] = Peptide stability test, phosphate buffer (pH 7.0), 40° C. storage, HPLC remaining rate; assay type: physicochemical
Method: Peptides 1 and 3 to 5 synthesized in Example 2 were weighed and dissolved in phosphate buffer (pH 7.0) to prepare 1.0 mM peptide solutions. The 1.0 mM peptide solutions were then diluted with phosphate buffer to 100 μM. After filtering with Chromatdisk (product of Merck Millipore, Millex-GV, 0.22 μm), each filtrate was dispensed into an LC vial (Waters Deactivated […] prepared peptide solutions were incubated for one month or 2 months in a 40° C. thermostatic bath to obtain stored samples. A simultaneously prepared sample among the peptide solutions that was not stored was used as a standard sample (initial sample). The standard sample and the stored samples were stored at -30° C. until sample analysis. Using the total weight of the aqueous peptide solution and storage vessel as the specimen weight, measurements were recorded as the specimen weights before storage and the specimen weights after storage under different storage conditions. The empty weight of the storage vessel was also measured, and the moisture permeability was determined by the following formula. After stirring the standard sample and the stored samples with a vortex mixer, each peptide solution was transferred to an HPLC vial (Deactivated Qsert vial by Waters Co.). Reverse-phase HPLC (HPLC system: Prominence by Shimadzu Corp.) was conducted under the conditions shown in Table 3 below for analysis of the peptide solutions, and chromatograms were obtained. Guard column: XSelect CSH C18 by Waters Co., 5 μm, 4.6×20 mm Guard Cartridge Detection wavelength: 220 nm Mobile phase A: 0.1% formic acid aqueous solution Mobile phase B: 0.1% acetonitrile formate solution Measuring time: 30 minutes Measuring sample injection rate: 50 μL Flow rate: 1.0 mL/min Sample cooler: 4° C. Column temperature: 40° C. Mobile phase delivery: The mixing ratio of mobile phase A and mobile phase B was varied as shown in Table 3 for linear concentration gradient control. The peak area value for the peptide in the chromatogram was calculated, and the remaining rate (remaining rate before correction for water) was calculated using formula (2). The remaining rate after correction for water was also calculated from the remaining rate before correction for water using formula (3), taking into account the moisture permeability of the vessel. Peptides 10 and 11 synthesized in Example 2 were weighed and dissolved in phosphate buffer (pH 7.0) to prepare 1.0 mM peptide solutions. Each solution was filtered with a Chromatdisk (product of Merck Millipore. Millex-GV, 0.22 μm). Each filtrate was diluted to 100 μM with phosphate buffer (pH 7.0) and dispensed into a tube (Protein LoBind Tube by Eppendorf Co.). The prepared peptide solutions were incubated for one month or 2 months in a 40° C. thermostatic bath to obtain stored samples. A simultaneously prepared sample among the peptide solutions that was not stored was used as a standard sample (initial sample). The standard sample and the stored samples were stored at -30° C. until sample analysis. The remaining rate after correction for water for each peptide among the stored samples was measured in the same manner as Example 4, and the results are shown in Table 8.

[2] = Peptide stability test, Tris buffer (pH 7.0), 60° C. storage, HPLC remaining rate; assay type: physicochemical; conditions: Table 7; 100 μM in Tris buffer pH 7.0
Procedure, shortened: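 Peptides at 100 μM in Tris buffer (pH 7.0) stored 1 or 2 weeks at 60° C.; unstored sample kept at −30° C. as initial reference. Remaining peptide quantified by reversed-phase HPLC at 220 nm (formic acid/acetonitrile gradient, 40° C. column), as water-corrected remaining rate.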

[3] = Table 8, 100 μM in phosphate buffer pH 7.0, measured as in Example 4

SMILES	EC50 (PAC1R)	EC50 (VPAC1R)	remaining rate after correction for water, 40° C., 1 month preservation [1, 3]	remaining rate after correction for water, 40° C., 2 months preservation [1, 3]	stability in aqueous solution (in words), 40° C. storage ([1]; phosphate buffer pH 7.0, 1 or 2 months)	remaining rate after correction for water, 60° C., 1 week preservation [2]	remaining rate after correction for water, 60° C., 2 weeks preservation [2]
CC[C@H](C)[C@H](NC(=O)CNC(=O)[C@H](Cc1nnn[nH]1)NC(=O)[C@H](CO)NC(=O)[C@@H](N)Cc1c[nH]cn1)C(=O)N[C@@H](Cc1ccccc1)C(=O)N[C@H](C(=O)N[C@@H](CC(=O)O)C(=O)N[C@@H](CO)C(=O)N[C@@H](Cc1ccc(O)cc1)C(=O)N[C@@H](CO)C(=O)N[C@@H](CCCNC(=N)N)C(=O)N[C@@H](Cc1ccc(O)cc1)C(=O)N[C@@H](CCCNC(=N)N)C(=O)N[C@@H](CCCCN)C(=O)N[C@@H](CCC(N)=O)C(=O)N[C@@H](CCSC)C(=O)N[C@@H](C)C(=O)N[C@H](C(=O)N[C@@H](CCCCN)C(=O)N[C@@H](CCCCN)C(=O)N[C@@H](Cc1ccc(O)cc1)C(=O)N[C@@H](CC(C)C)C(=O)N[C@@H](C)C(=O)N[C@@H](C)C(=O)N[C@H](C(=O)N[C@@H](CC(C)C)C(N)=O)C(C)C)C(C)C)[C@@H](C)O [Peptide 3]	0.06 nM	0.101 nM					
CC[C@H](C)[C@H](NC(=O)CNC(=O)[C@H](Cc1nnn[nH]1)NC(=O)[C@H](CO)NC(=O)[C@H](Cc1c[nH]cn1)NC(C)=O)C(=O)N[C@@H](Cc1ccccc1)C(=O)N[C@H](C(=O)N[C@@H](Cc1nnn[nH]1)C(=O)N[C@@H](CO)C(=O)N[C@@H](Cc1ccc(O)cc1)C(=O)N[C@@H](CO)C(=O)N[C@@H](CCCNC(=N)N)C(=O)N[C@@H](Cc1ccc(O)cc1)C(=O)N[C@@H](CCCNC(=N)N)C(=O)N[C@@H](CCCCN)C(=O)N[C@@H](CCC(N)=O)C(=O)N[C@@H](CCSC)C(=O)N[C@@H](C)C(=O)N[C@H](C(=O)N[C@@H](CCCCN)C(=O)N[C@@H](CCCCN)C(=O)N[C@@H](Cc1ccc(O)cc1)C(=O)N[C@@H](CC(C)C)C(=O)N[C@@H](C)C(=O)N[C@@H](C)C(=O)N[C@H](C(=O)N[C@@H](CC(C)C)C(N)=O)C(C)C)C(C)C)[C@@H](C)O [Peptide 10] (Ac-HS[Ala(1H-tetrazol-5-yl)]GIFT[Ala(1H-tetrazol-5-yl)]SYSRYRKQMAVKKYLAAVL-NH2)		0.101 nM	94.0%	86.8%	stabilized to the same degree		
CC[C@H](C)[C@H](NC(=O)[C@H](C)NC(=O)[C@H](Cc1nnn[nH]1)NC(=O)[C@H](CO)NC(=O)[C@H](Cc1c[nH]cn1)NC(C)=O)C(=O)N[C@@H](Cc1ccccc1)C(=O)N[C@H](C(=O)N[C@@H](Cc1nnn[nH]1)C(=O)N[C@@H](CO)C(=O)N[C@@H](Cc1ccc(O)cc1)C(=O)N[C@@H](CO)C(=O)N[C@@H](CCCNC(=N)N)C(=O)N[C@@H](Cc1ccc(O)cc1)C(=O)N[C@@H](CCCNC(=N)N)C(=O)N[C@@H](CCCCN)C(=O)N[C@@H](CCC(N)=O)C(=O)N[C@@H](CC(C)C)C(=O)N[C@@H](C)C(=O)N[C@H](C(=O)N[C@@H](CCCCN)C(=O)N[C@@H](CCCCN)C(=O)N[C@@H](Cc1ccc(O)cc1)C(=O)N[C@@H](CC(C)C)C(=O)N[C@@H](C)C(=O)N[C@@H](C)C(=O)N[C@H](C(=O)N[C@@H](CC(C)C)C(N)=O)C(C)C)C(C)C)[C@@H](C)O [Peptide 23] (Ac-HS[Ala(1H-tetrazol-5-yl)]AIFT[Ala(1H-tetrazol-5-yl)]SYSRYRKQLAVKKYLAAVL-NH2)	0.079 nM	0.072 nM				96.5%	93.1%
CC[C@H](C)[C@H](NC(=O)CNC(=O)[C@H](Cc1nnn[nH]1)NC(=O)[C@H](CO)NC(=O)[C@H](Cc1c[nH]cn1)NC(C)=O)C(=O)N[C@@H](Cc1ccccc1)C(=O)N[C@H](C(=O)N[C@@H](Cc1nnn[nH]1)C(=O)N[C@@H](C)C(=O)N[C@@H](Cc1ccc(O)cc1)C(=O)N[C@@H](CO)C(=O)N[C@@H](CCCNC(=N)N)C(=O)N[C@@H](Cc1ccc(O)cc1)C(=O)N[C@@H](CCCNC(=N)N)C(=O)N[C@@H](CCCCN)C(=O)N[C@@H](CCC(N)=O)C(=O)N[C@@H](C)C(=O)N[C@@H](C)C(=O)N[C@H](C(=O)N[C@@H](CCCCN)C(=O)N[C@@H](CCCCN)C(=O)N[C@@H](Cc1ccc(O)cc1)C(=O)N[C@@H](CC(C)C)C(=O)N[C@@H](C)C(=O)N[C@@H](C)C(=O)N[C@H](C(=O)N[C@@H](CC(C)C)C(N)=O)C(C)C)C(C)C)[C@@H](C)O [Peptide 27] (Ac-HS[Ala(1H-tetrazol-5-yl)]GIFT[Ala(1H-tetrazol-5-yl)]AYSRYRKQAAVKKYLAAVL-NH2)	0.06 nM	0.044 nM				96.4%	93.5%

Source: patent US20220202905A1, “COMPOSITION FOR PREVENTING OR TREATING NEUROTROPHIC KERATITIS WHICH CONTAINS PACAP PEPTIDE OR STABILIZED PACAP PEPTIDE” (SENJU PHARMACEUTICAL CO., LTD., priority 2019, published 2022)
